The subject of this assay is primary rat mixed cortical cells. The experiment in a line: In vitro myelination assay (MBP positive myelin strands, fold myelin pixels above background). To be noted: Rattus norvegicus; for fold induction at 1 µM: 1.0 μM compound; for fold induction at 10 µM: 10.0 μM compound. In kind it is cell-based. The essentials:
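P1 rat cortical cells (neurons, OPCs, oligodendrocytes, astrocytes, microglia) were cultured 14 days at 37 °C with compound, with half-medium changes containing 1× compound on days 6 and 10. Fixed cells were immunostained for MBP and imaged at 10×. Total MBP myelin pixels per well were expressed as fold above no-compound baseline at 1.0 μM and 10.0 μM.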

Where [1] appears, read: relative to baseline of no added compound, read-out: Fold myelin pixels above background, 1.0 μM.
Where [2] appears, read: relative to baseline of no added compound, read-out: Fold myelin pixels above background, 10.0 μM.
[3] abbreviates: relative to baseline of no added compound, read-out: Fold myelin pixels above background.
[4] abbreviates: read-out: Fold myelin pixels above background relative to baseline of no added compound.

The values that follow come from patent US10766869B2, “Triazoles for the treatment of demyelinating dieases” (Vertex Pharmaceuticals Incorporated, priority 2015, dated 2020).

Where two headings read alike, the source gives them in different places.

For `CCc1cc(F)cc(-n2cnc(Nc3cc(C)cc(N4CCN(C)CC4)c3)n2)c1` [Compound 255, 1-(3-ethyl-5-fluoro-phenyl)-N-[3-methyl-5-(4-methylpiperazin-1-yl)phenyl]-1,2,4-triazol-3-amine], the fold induction at 1 µM under setting [1] lay within 100 to 1000. Also, under setting [2], the fold induction at 10 µM lay within 100 to 1000.
Regarding `Cc1cc(Nc2ncn(-c3ccccc3C)n2)cc(N2CCN(C3COC3)CC2)c1` [Compound 414, N-[3-methyl-5-[4-(oxetan-3-yl)piperazin-1-yl]phenyl]-1-(o-tolyl)-1,2,4-triazol-3-amine], under setting [3], the fold induction at 1 µM is 1 to 10 and the fold induction at 10 µM lay within 100 to 1000.
As to `COCCCCN1CCN(c2cc(C)cc(Nc3ncn(-c4cc(F)cc(F)c4)n3)c2)CC1` [Compound 1001, 1-(3,5-difluorophenyl)-N-[3-[4-(4-methoxybutyl)piperazin-1-yl]-5-methyl-phenyl]-1,2,4-triazol-3-amine], under setting [4], the fold induction at 1 µM was in the range of 10 to 100 and the fold induction at 10 µM was in the range of 1 to 10.
As to `CC(=O)N1CCCC(c2cc(C)cc(Nc3ncn(-c4cnccn4)n3)c2)C1` (centres unmarked) [Compound 300, 1-[3-[3-methyl-5-[(1-pyrazin-2-yl-1,2,4-triazol-3-yl)amino]phenyl]-1-piperidyl]ethanone], the fold induction at 1 µM under setting [1] lay within 100 to 1000. In addition, under setting [2], the fold induction at 10 µM was at most 1.
With `Cc1cc(Nc2ncn(-c3cc(F)cc(F)c3)n2)cc([C@]2(C)CN(C)C(=O)O2)c1` (single isomer, unassigned) [Compound 796], under setting [4], the fold induction at 1 µM lay in the range of 10 to 100 and the fold induction at 10 µM was at most 1.
As for `Cc1cc(Nc2ncn(-c3ccccc3)n2)cc(N2CCC(C#N)CC2)c1` [Compound 142, 1-[3-methyl-5-[(1-phenyl-1,2,4-triazol-3-yl)amino]phenyl]piperidine-4-carbonitrile], under setting [1], the fold induction at 1 µM is 1000 to 10000. For the same compound, the fold induction at 10 µM under setting [2] was 100 to 1000.
In the same order, the values of `Cc1cc(Nc2ncn(-c3ccncc3)n2)cc(N2CCN(C3COC3)CC2)c1` [Compound 224, N-[3-methyl-5-[4-(oxetan-3-yl)piperazin-1-yl]phenyl]-1-(4-pyridyl)-1,2,4-triazol-3-amine] are 100 to 1000 and 10 to 100.
As for `Cc1cc(Nc2ncn(-c3cc(F)cc(F)c3)n2)cc(N2CCC(CCO)CC2)c1` [Compound 874, 2-[1-[3-[[1-(3,5-difluorophenyl)-1,2,4-triazol-3-yl]amino]-5-methyl-phenyl]-4-piperidyl]ethanol], under setting [4], the fold induction at 1 µM was 10 to 100 and the fold induction at 10 µM is at most 1.
Regarding `Cc1cc(Nc2ncn(-c3cc(F)cc(F)c3)n2)cc(NC2CC2)c1` [Compound 448, N1-cyclopropyl-N3-[1-(3,5-difluorophenyl)-1,2,4-triazol-3-yl]-5-methyl-benzene-1,3-diamine], under setting [3], the fold induction at 1 µM fell in the range of 100 to 1000 and the fold induction at 10 µM lay within 1 to 10.
In the case of `CCc1cc(Nc2ncn(-c3cncnc3)n2)cc(N2CC(N3CCOCC3)C2)c1` [Compound 544, N-[3-ethyl-5-(3-morpholinoazetidin-1-yl)phenyl]-1-pyrimidin-5-yl-1,2,4-triazol-3-amine], under setting [3], the fold induction at 1 µM fell in the range of 1 to 10 and the fold induction at 10 µM is 10 to 100.
As for `c1ccc(-n2cnc(Nc3cc(C4CC4)nc(N4CCOCC4)c3)n2)cc1` [Compound 222, 2-cyclopropyl-6-morpholino-N-(1-phenyl-1,2,4-triazol-3-yl)pyridin-4-amine], the fold induction at 1 µM under setting [1] is 100 to 1000. Moreover, under setting [2], the fold induction at 10 µM was 1 to 10.
Turning to `Fc1cc(F)cc(-n2cnc(Nc3cc(N4CCN(C5COC5)CC4)cc(Cl)n3)n2)c1` [Compound 733, 6-chloro-N-[1-(3,5-difluorophenyl)-1,2,4-triazol-3-yl]-4-[4-(oxetan-3-yl)piperazin-1-yl]pyridin-2-amine], under setting [3], the fold induction at 1 µM was in the range of 1 to 10 and the fold induction at 10 µM is 1 to 10.
On to `Cc1cc(Nc2ncn(-c3cc(F)cc(F)c3)n2)cc(N2CCN(CC(C)(C)O)C(C)C2)c1` (centres unmarked) [Compound 941, 1-[4-[3-[[1-(3,5-difluorophenyl)-1,2,4-triazol-3-yl]amino]-5-methyl-phenyl]-2-methyl-piperazin-1-yl]-2-methyl-propan-2-ol], for which, under setting [4], the fold induction at 1 µM fell in the range of 1 to 10 and the fold induction at 10 µM fell in the range of 1 to 10.
Regarding `Cc1cc(Nc2ncn(-c3ccccc3)n2)cc(C2(F)CCN(C3COC3)C2)c1` (centres unmarked) [Compound 18, N-[3-[3-fluoro-1-(oxetan-3-yl)pyrrolidin-3-yl]-5-methyl-phenyl]-1-phenyl-1,2,4-triazol-3-amine], the fold induction at 1 µM under setting [1] lay within 1000 to 10000. Also, under setting [2], the fold induction at 10 µM lay in the range of 1 to 10.
On to `Fc1cc(-n2cnc(Nc3cc(C4CC4)cc(N4CCN(C5COC5)CC4)c3)n2)cc(F)n1` [Compound 121, N-[3-cyclopropyl-5-[4-(oxetan-3-yl)piperazin-1-yl]phenyl]-1-(2,6-difluoro-4-pyridyl)-1,2,4-triazol-3-amine], for which the fold induction at 1 µM under setting [1] lay within 100 to 1000. Moreover, under setting [2], the fold induction at 10 µM was at most 1.
In the case of `Cc1cc(Nc2ncn(-c3cc(F)cc(F)c3)n2)cc(N(C)C2COC2)c1` [Compound 197, N3-[1-(3,5-difluorophenyl)-1,2,4-triazol-3-yl]-N1,5-dimethyl-N1-(oxetan-3-yl)benzene-1,3-diamine], the fold induction at 1 µM under setting [1] lay in the range of 100 to 1000. The fold induction at 10 µM under setting [2] is 100 to 1000.
In the case of `CCOc1nccc(-n2cnc(Nc3cc(C)cc(N4CCN(C5COC5)CC4)c3)n2)n1` [Compound 204, 1-(2-ethoxypyrimidin-4-yl)-N-[3-methyl-5-[4-(oxetan-3-yl)piperazin-1-yl]phenyl]-1,2,4-triazol-3-amine], the fold induction at 1 µM under setting [1] is at most 1. The fold induction at 10 µM under setting [2] is at most 1.
For `CN1CCN(c2cc(F)cc(Nc3ncn(-c4cccc(F)c4)n3)c2)CC1` [Compound 203, N-[3-fluoro-5-(4-methylpiperazin-1-yl)phenyl]-1-(3-fluorophenyl)-1,2,4-triazol-3-amine], the fold induction at 1 µM under setting [1] was 100 to 1000. Besides, the fold induction at 10 µM under setting [2] is at most 1.
In the same order, the values of `COc1ccc(-n2cnc(Nc3cc(Cl)nc(N4CCOCC4)c3)n2)cc1OC` [Compound 345, 2-chloro-N-[1-(3,4-dimethoxyphenyl)-1,2,4-triazol-3-yl]-6-morpholino-pyridin-4-amine] are 10 to 100 and 1 to 10.
In the same order, the values of `Cc1cc(Nc2ncn(-c3ccc(F)c(F)c3)n2)cc(N2CCC(C3COC3)CC2)c1` [Compound 169, 1-(3,4-difluorophenyl)-N-[3-methyl-5-[4-(oxetan-3-yl)-1-piperidyl]phenyl]-1,2,4-triazol-3-amine] are 10 to 100 and 1 to 10.
The corresponding values for `CCc1cc(Nc2ncn(-c3cc(F)cc(F)c3)n2)cc(N2CCN(C3(C)COC3)CC2)c1` [Compound 264, 1-(3,5-difluorophenyl)-N-[3-ethyl-5-[4-(3-methyloxetan-3-yl)piperazin-1-yl]phenyl]-1,2,4-triazol-3-amine] are 10 to 100 and 10 to 100.
Regarding `Cc1cc(Nc2ncn(-c3cc(F)cc(F)c3)n2)cc(C2CCNCC2O)c1` (centres unmarked) [Compound 438, 4-[3-[[1-(3,5-difluorophenyl)-1,2,4-triazol-3-yl]amino]-5-methyl-phenyl]piperidin-3-ol], under setting [3], the fold induction at 1 µM fell in the range of 10 to 100 and the fold induction at 10 µM was at most 1.
As for `Cc1cc(Nc2ncn(-c3ccncn3)n2)cc(N2CCN(C3CC3)CC2)c1` [Compound 176, N-[3-(4-cyclopropylpiperazin-1-yl)-5-methyl-phenyl]-1-pyrimidin-4-yl-1,2,4-triazol-3-amine], the fold induction at 1 µM under setting [1] was in the range of 100 to 1000. Under setting [2], the fold induction at 10 µM was in the range of 100 to 1000.
Regarding `Fc1cc(-n2cnc(Nc3cc(C(F)F)cc(N4CCN(C5COC5)CC4)n3)n2)ccc1Cl` [Compound 621, N-[1-(4-chloro-3-fluoro-phenyl)-1,2,4-triazol-3-yl]-4-(difluoromethyl)-6-[4-(oxetan-3-yl)piperazin-1-yl]pyridin-2-amine], under setting [3], the fold induction at 1 µM was 10 to 100 and the fold induction at 10 µM lay in the range of 1 to 10.
Turning to `COCC1CCN(c2cc(C(F)F)cc(Nc3ncn(-c4cc(F)cc(F)c4)n3)n2)CC1` [Compound 729, 4-(difluoromethyl)-N-[1-(3,5-difluorophenyl)-1,2,4-triazol-3-yl]-6-[4-(methoxymethyl)-1-piperidyl]pyridin-2-amine], under setting [3], the fold induction at 1 µM was at most 1 and the fold induction at 10 µM fell in the range of 10 to 100.
`Cc1cc(Nc2ncn(-c3cc(F)cc(F)c3)n2)cc(C2CCN(C3COC3)CC2(F)F)c1` (centres unmarked) [Compound 235, N-[3-[3,3-difluoro-1-(oxetan-3-yl)-4-piperidyl]-5-methyl-phenyl]-1-(3,5-difluorophenyl)-1,2,4-triazol-3-amine]: the fold induction at 1 µM under setting [1] was 10 to 100. The fold induction at 10 µM under setting [2] lay within 10 to 100.
With `Cc1cc(Nc2ncn(-c3cc(F)cc(F)c3)n2)cc(N2CCN(C3CCOCC3)CC2)c1` [Compound 243, 1-(3,5-difluorophenyl)-N-[3-methyl-5-(4-tetrahydropyran-4-ylpiperazin-1-yl)phenyl]-1,2,4-triazol-3-amine], under setting [1], the fold induction at 1 µM fell in the range of 100 to 1000. Moreover, the fold induction at 10 µM under setting [2] was at most 1.
Take `Cc1ccc(-n2cnc(Nc3cc(C)cc(N4CCN(C5COC5)CC4)c3)n2)cc1` [Compound 70, N-[3-methyl-5-[4-(oxetan-3-yl)piperazin-1-yl]phenyl]-1-(p-tolyl)-1,2,4-triazol-3-amine]: the fold induction at 1 µM under setting [1] was at most 1. The fold induction at 10 µM under setting [2] lay within 10 to 100.
